# Results from patent US4645770A, “Agent for treating Parkinson's disease or Parkinsonism” (priority 1985, dated 1987).
# Structures can show the parent of a compound that is named as a salt.
# Experiments:
# [1] = tested on: postsynaptic dopamine (DA) receptors; test: Ipsilateral rotation in the ibotenic acid model; type: in vivo, rat
# "naive" rat [2] = test: Spontaneous motor activity: non-ambulatory (stereotypical) movements, Opto-Varimex 3; type: in vivo; details: for Stereotypical movements (Movements/15 min.): from 55 minutes after injection
# Experimental: (§1) (A) Spontaneous motor activity in the "naive" rat
# (§2) Two aspects of motor function were recorded with a known "Opto-Varimex 3":
# (b) "non-ambulatory" movements which are made up essentially of stereotypical movements, which began to be recorded 45 minutes after the animals had been put into the recording cage (and 55 minutes after s.c. injection).
# (§3) The following doses of B-HT 920 were tested: 0.02, 0.2, 2.0 mg/kg s.c.. As a comparison apomorphine was tested in a dosage of 0.1 mg/kg s.c.
# [3] = tested on: denervated post-synaptic DA receptors; test: Contralateral rotation on the 6-OHDA model; type: in vivo, rat
# [4] = tested on: presynaptic dopaminergic receptors; details: Anden et al., 1983; cited from earlier work
# "naive" rat [5] = test: Spontaneous motor activity: ambulatory movements (exploratory activity), Opto-Varimex 3; type: in vivo; details: for Contacts broken (exploratory activity/5 min.): first 5 minutes after injection
# Experimental: as §1, §2
# (a) "ambulatory" movements in the first 5 minutes after s.c. injection of B-HT 920; this phase of locomotor function corresponds to the so-called "exploratory activity" of rats in a new environment;
# as §3
# [6] = tested on: MPTP Parkinsonism syndrome; test: MPTP model of Parkinson's disease in Rhesus monkeys; type: in vivo
# Description: The irreversible neurological syndrome triggered in monkeys and humans by MPTP largely resembles idiopathic Parkinson's disease in its clinical, pathological, biochemical and pharmacological features (Markey et al., Nature 311, 464 (1984)). The reason for this strong similarity is the fact that MPTP selectively destroys the small group of dopaminergic nerve cells in the substantia nigra of the brain which are also destroyed by degenerative processes in naturally occurring Parkinson's disease. There is even some discussion to the effect that idiopathic Parkinson's disease might be caused by MPTP or a similar chemical compound formed in the organism (Snyder, S. H., Nature 311, 514 (1984)). Possibly as a result of the specific metabolism of MPTP, the clinical features of the MPTP Parkinsonism syndrome have been thusfar only been detected in monkeys and man. The MPTP model produced in Rhesus monkeys is therefore exceptionally suitable for testing the effect of anti-Parkinson's drugs.
# Voluntary movements of the hindquarters and extremities could not generally be initiated even by extreme and painful stimulation.
# After the intramuscular administration of B-HT 920 (50-100 mcg/kg) the first voluntary movements occurred at a time interval of 5 to 10 minutes, followed in the next 10 to 30 minutes by a gradual, extensive normalization of motor function. The animals were capable of taking food. They maintained thier normal posture within their cages and also behaved normally in terms of vigilance and species-specific behavior. […] There was no sedation.
# [7] = Oral acute toxicity (LD50) in the mouse; details: in vivo
smiles,measurement,setting,value
"C=CCN1CCc2nc(N)sc2CC1 [B-HT 920, 2-amino-6-allyl-5,6,7,8-tetrahydro-4H-thiazole-[4,5-d]azepine dihydrochloride]",Ipsilateral rotations/duration of activity,"[1]; 0.2 mg/kg s.c., up to 6 hours",37 Ipsilateral rotations/duration of activity
same,Ipsilateral rotations/duration of activity,"[1]; 0.5 mg/kg s.c., up to 6 hours",54 Ipsilateral rotations/duration of activity
same,Ipsilateral rotations/duration of activity,"[1]; 1.0 mg/kg s.c., up to 6 hours",102 Ipsilateral rotations/duration of activity
same,Ipsilateral rotations/duration of activity,"[1]; 2.0 mg/kg s.c., up to 6 hours",96 Ipsilateral rotations/duration of activity
same,Activity on the normally sensitive DA receptor (in words),[1]; compared with apomorphine,only a weak activity
same,Post-synaptic DA-agonistic activity relative to apomorphine on the normally sensitive DA receptor,[1]; fraction of the activity of apomorphine,about one eighth
same,Stereotypical movements (Movements/15 min.),"""naive"" rat [2]; 0.2 mg/kg s.c.",370 Movements/15 min.
same,Stereotypical movements (Movements/15 min.),"""naive"" rat [2]; 2.0 mg/kg s.c.",310 Movements/15 min.
same,Stereotypical movements (Movements/15 min.),"""naive"" rat [2]; 4.0 mg/kg s.c.",340 Movements/15 min.
same,Increase in the number of stereotypical movements,"""naive"" rat [2]; any of the doses tested",did not lead to an increase in the number of stereotypical movements
same,Contralateral rotations up to 6 hours,[3]; 0.02 mg/kg,168 Contralateral rotations
same,Contralateral rotations up to 6 hours,[3]; 0.05 mg/kg,582 Contralateral rotations
same,Contralateral rotations up to 6 hours,[3]; 0.5 mg/kg,1282 Contralateral rotations
same,Contralateral rotations up to 6 hours,[3]; 1.0 mg/kg,1442 Contralateral rotations
same,Activity on denervated receptors,[3]; by contrast with its weak effect on normal DA receptors,exceptionally strong activity on denervated receptors
same,Agonist effect on presynaptic dopaminergic receptors,[4],agonist with a selective effect on presynaptic dopaminergic receptors
same,Contacts broken (exploratory activity/5 min.),"""naive"" rat [5]; 0.02 mg/kg s.c.",380 /5 min.
same,Contacts broken (exploratory activity/5 min.),"""naive"" rat [5]; 0.2 mg/kg s.c.",150 /5 min.
same,Inhibitory effect on the exploratory activity,"""naive"" rat [5]; 0.2 mg/kg, compared with 0.1 mg/kg of apomorphine",almost maximum
same,Contacts broken (exploratory activity/5 min.),"""naive"" rat [5]; 2.0 mg/kg s.c.",130 /5 min.
same,Behavior of the animals after administration,[6]; 50-100 mcg/kg intramuscular,The animals were capable of taking food. They maintained thier normal posture within their cages and also behaved normally in terms of vigilance and species-specific behavior
same,Residual symptoms recorded,[6]; 50-100 mcg/kg intramuscular,"an occasional, transient, slight resting tremor and a reduction in brute strength"
same,Sedation,[6]; 50-100 mcg/kg intramuscular,no sedation
same,Time after which the effect diminished,[6]; 50-100 mcg/kg intramuscular,about 3 hours
same,Blood supply to the skin,"[6]; 50-100 mcg/kg intramuscular, compared with the state before administration",appeared to be increased
same,Effect of fresh administration on clinical pathological symptoms,[6]; after reversion to the Parkinson's symptoms,improvement or substantial removal of the clinical pathological symptoms
same,Side effects,[6]; at the dosages used,No side effects were discovered
"C=CCN1CCc2nc(N)sc2CC1 [Compound A, 2-amino-6-allyl-5,6,7,8-tetrahydro-4H-thiazolo[4,5-d]azepine]",LD50,[7],455 mg/kg
"CN1CCc2cccc3c2[C@H]1Cc1ccc(O)c(O)c1-3 [apomorphine, reference compound]",Ipsilateral rotations/duration of activity,"[1]; 0.5 mg/kg s.c., up to 3 hours",265 Ipsilateral rotations/duration of activity
same,Ipsilateral rotations/duration of activity,"[1]; 1.0 mg/kg s.c., up to 3 hours",436 Ipsilateral rotations/duration of activity
same,Ipsilateral rotations/duration of activity,"[1]; 10.0 mg/kg s.c., up to 3 hours",880 Ipsilateral rotations/duration of activity
same,Stereotypical movements (Movements/15 min.),"""naive"" rat [2]; 4.0 mg/kg s.c.",650 Movements/15 min.
same,Contralateral rotations up to 6 hours,[3]; 0.05 mg/kg,557 Contralateral rotations
same,Contacts broken (exploratory activity/5 min.),"""naive"" rat [5]; 0.1 mg/kg s.c.",150 /5 min.
